Source: publication PMC7948648 (The Journal of Biological Chemistry, 2021)

Assays:
[1] = test system: T1, PARP1; set-up: method as in PMID 28001384; conditions: selectivity PARP1 over TNKS1; cited from earlier work
T1 construct: To assess if these observations extend to endogenous cellular settings; endogenous in cells; host or cells: NCI-H1048 cell lysate

[2] = clinical dose of 1 mg once a day; cited from earlier work
[3] = test system: TNKS1; assay: Biotin probe competition pulldown in NCI-H1048 cell lysate, Western blot for TNKS1; conditions: talazoparib versus olaparib, 30 min pretreatment, biotin probes
Method: Proteins bound to streptavidin were released and subjected to Western blot analysis for either PARP1 (top) or TNKS1 (bottom).
Lysate was then spun at 1500 rpm for 3 min, and the soluble fraction was transferred to a new tube on ice.
Conjugated beads were washed three times with wash buffer (50 mM Hepes [Fisher Scientific AAJ60712AK], 150 mM NaCl [Invitrogen, AM9759], and 1% nonyl phenoxypolyethoxylethanol [Fisher Scientific NC9168253]) rotating for 3 min. All PARP inhibitor pulldowns were from 1 mg/ml of protein lysate.

[4] = molecular target: the molecule itself; assay: crystal structure; TNKS1 ART domain, apo and with talazoparib, olaparib, niraparib or veliparib; sitting-drop vapor diffusion at 4 °C; several crystal forms with multiple molecules in the asymmetric unit

Molecule: CN(C)CC(=O)Nc1ccc2[nH]c(=O)c3ccccc3c2c1 [PJ34]
- fold lower IC50 for PARP1 than for TNKS1 [1]: over 25 fold

Molecule: Cn1ncnc1[C@H]1c2n[nH]c(=O)c3cc(F)cc(c23)N[C@@H]1c1ccc(F)cc1 [Talazoparib, talazoparib]
- free plasma concentration [2]: ~17 nM
- greater ability to prevent binding to TNKS1 [3]: approximately 1000 fold

B1: tankyrase1 (TNKS1) ART domain (residues 1104-1314) (domain or fragment, UniProt O95271 1104-1314, looked up)
chain: QGTILLDLAPEDKEYQSVEEEMQSTIREHRDGGNAGGIFNRYNVIRIQKVVNKKLRERFCHRQKEVSEENHNHHNERMLFHGSPFINAIIHKGFDERHAYIGGMFGAGIYFAENSSKSNQYVYGIGGGTGCPTHKDRSCYICHRQMLFCRVTLGKSFLQFSTMKMAHAPPGHHSVIGRPSVNGLAYAEYVIYRGEQAYPEYLITYQIMKPE
notes: tankyrase1 (TNKS1, PARP5a), ART domain, residues 1104-1314; also called PARP5a; not shown: His6, N-terminal, cleaved
- binding result [4]: binds
